Assay results as given in patent US7202216B2 (The Board of Trustees of the Leland Stanford Junior …, priority 2002, dated 2007).
Where no end group is shown, it is not given here.

Key:
[1] = BBM fractions prepared from rat small intestinal mucosa
[2] = Amount of peptides digested after 15 hours (Table 1, samples H1P0-H5P0); format: in vitro ADME
[3] = test system: small intestinal brush-border membrane (BBM) enzymes; assay: Brush-border membrane (BBM) digestion of gliadin peptides; settings: 12 ng/μl BBM protein, rat small intestinal mucosa
[4] = test system: gastric and pancreatic proteases (pepsin, trypsin, chymotrypsin, elastase, carboxypeptidase)
[5] = target: T1, tissue transglutaminase (tTGase) (Homo sapiens, UniProt P21980); settings: vs natural substrate fibrinogen; cited from earlier work
T1 sequence (P21980 1-687): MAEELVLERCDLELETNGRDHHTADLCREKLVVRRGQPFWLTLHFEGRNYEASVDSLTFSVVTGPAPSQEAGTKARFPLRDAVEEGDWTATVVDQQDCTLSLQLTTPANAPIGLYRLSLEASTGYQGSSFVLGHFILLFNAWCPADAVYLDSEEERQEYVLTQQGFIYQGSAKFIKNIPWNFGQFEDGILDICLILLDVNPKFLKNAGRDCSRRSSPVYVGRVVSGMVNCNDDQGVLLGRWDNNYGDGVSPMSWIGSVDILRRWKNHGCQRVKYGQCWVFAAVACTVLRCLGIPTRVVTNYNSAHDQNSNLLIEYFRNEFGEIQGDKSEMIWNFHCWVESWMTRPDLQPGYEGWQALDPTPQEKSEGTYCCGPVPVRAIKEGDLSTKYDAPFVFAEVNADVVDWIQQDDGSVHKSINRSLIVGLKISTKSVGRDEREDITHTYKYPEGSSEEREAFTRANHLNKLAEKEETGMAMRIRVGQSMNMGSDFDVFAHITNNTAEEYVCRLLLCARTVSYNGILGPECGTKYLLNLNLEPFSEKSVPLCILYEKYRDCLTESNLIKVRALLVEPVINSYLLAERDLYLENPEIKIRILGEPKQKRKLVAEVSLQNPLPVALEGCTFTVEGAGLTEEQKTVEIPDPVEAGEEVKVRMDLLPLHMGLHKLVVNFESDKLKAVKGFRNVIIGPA

| Sequence | not cleaved [1] | Amount of Peptides Digested after 15 hours ([2]; sample H1P0) [%] | Amount of Peptides Digested after 15 hours ([2]; sample H2P0) [%] | Amount of Peptides Digested after 15 hours ([2]; sample H3P0) [%] | Amount of Peptides Digested after 15 hours ([2]; sample H4P0) [%] | Amount of Peptides Digested after 15 hours ([2]; sample H5P0) [%] | half-life of digestion [3] [h] | stability on prolonged exposure to proteases [4] | specificity of tTGase relative to its target peptide sequence in fibrinogen [5] [fold] |
| --- | --- | --- | --- | --- | --- | --- | --- | --- | --- |
| LQLQPFPQPQLPYPQPQLPYPQPQLPYPQPQPF | half-life of digestion >20 h; remains intact |  |  |  |  |  |  |  |  |
| LQLQPFPQPQLPYPQPQLPYPQPQLPYPQPQPF [33-mer] |  | <20 | <20 | <20 | <20 | <20 | > 20 | remained intact |  |
| PQPQLPYPQPQLPY (listed as Triticum aestivum) [α-gliadin derived tTGase substrate peptide] |  |  |  |  |  |  |  |  | 5 |
| QLQPFPQPQLPY [Control A] |  | >90 | >61 | >87 | >96 | >96 |  |  |  |
| WQIPEQSR [Control B] |  | >90 | >85 | >95 | >95 | >95 |  |  |  |
